# Experimental data published in ChEMBL document CHEMBL1132660, “Three-dimensional quantitative structure-activity relationship study on cyclic urea derivatives as HIV-1 protease inhibitors: application of comparative molecular field analysis” (J Med Chem, 1999).
# Target: Human immunodeficiency virus type 1 protease (Human immunodeficiency virus 1, UniProt Q72874)
# Assay: Inhibition of HIV-1 protease
row,Structure (SMILES),Ki [pM]
1,COc1cccc(N2C(=O)N(Cc3cccc(C(=O)Nc4ccccn4)c3)[C@H](Cc3ccccc3)[C@H](O)[C@@H](O)[C@H]2Cc2ccccc2)c1,47
2,COc1cccc(N2C(=O)N(Cc3cccc(C(=O)Nc4cnccn4)c3)[C@H](Cc3ccccc3)[C@H](O)[C@@H](O)[C@H]2Cc2ccccc2)c1,38
3,Nc1cccc(N2C(=O)N(Cc3cccc(C(=O)Nc4nc5ccccc5[nH]4)c3)[C@H](Cc3ccccc3)[C@H](O)[C@@H](O)[C@H]2Cc2ccccc2)c1,23
4,Nc1cccc(N2C(=O)N(Cc3cccc(C(=O)Nc4ncc[nH]4)c3)[C@H](Cc3ccccc3)[C@H](O)[C@@H](O)[C@H]2Cc2ccccc2)c1,12
5,Cc1ccc(NC(=O)c2cccc(CN3C(=O)N(c4cccc(N)c4)[C@H](Cc4ccccc4)[C@H](O)[C@@H](O)[C@H]3Cc3ccccc3)c2)nc1,75
6,COc1cc(OC)cc(N2C(=O)N(Cc3cccc(C(=O)Nc4cnccn4)c3)[C@H](Cc3ccccc3)[C@H](O)[C@@H](O)[C@H]2Cc2ccccc2)c1,2510
7,CC(C)(C)CCN1C(=O)N(CCC(C)(C)C)[C@H](Cc2ccccc2)[C@H](O)[C@@H](O)[C@H]1Cc1ccccc1,36000
8,Nc1cccc(N2C(=O)N(Cc3cccc(C(=O)Nc4cnccn4)c3)[C@H](Cc3ccccc3)[C@H](O)[C@@H](O)[C@H]2Cc2ccccc2)c1,16
9,COc1cccc(N2C(=O)N(Cc3cccc(C(=O)Nc4cccc(C)n4)c3)[C@H](Cc3ccccc3)[C@H](O)[C@@H](O)[C@H]2Cc2ccccc2)c1,53
10,O=C(Nc1ccccn1)c1cccc(CN2C(=O)N(c3cccc([N+](=O)[O-])c3)[C@H](Cc3ccccc3)[C@H](O)[C@@H](O)[C@H]2Cc2ccccc2)c1,96
11,COc1cc(OC)cc(N2C(=O)N(Cc3cccc(C(=O)Nc4ccccn4)c3)[C@H](Cc3ccccc3)[C@H](O)[C@@H](O)[C@H]2Cc2ccccc2)c1,860
12,O=C(NCC1CC1)c1cccc(CN2C(=O)N(Cc3cccc(C(=O)NCC4CC4)c3)[C@H](Cc3ccccc3)[C@H](O)[C@@H](O)[C@H]2Cc2ccccc2)c1,741
13,COc1cccc(N2C(=O)N(Cc3cccc(C(=O)Nc4ccc(C)cn4)c3)[C@H](Cc3ccccc3)[C@H](O)[C@@H](O)[C@H]2Cc2ccccc2)c1,69
14,COc1cc(OC)cc(N2C(=O)N(Cc3cccc(C(=O)Nc4ccc(C)cn4)c3)[C@H](Cc3ccccc3)[C@H](O)[C@@H](O)[C@H]2Cc2ccccc2)c1,1900
15,O=C1N(Cc2ccc3ccccc3c2)[C@H](Cc2ccccc2)[C@H](O)[C@@H](O)[C@@H](Cc2ccccc2)N1C1CCCC1,280
16,O=C(NCc1ccccc1)c1cccc(CN2C(=O)N(Cc3cccc(C(=O)NCc4ccccc4)c3)[C@H](Cc3ccccc3)[C@H](O)[C@@H](O)[C@H]2Cc2ccccc2)c1,430
17,CC(C)(C)NC(=O)c1cccc(CN2C(=O)N(c3cccc(N)c3)[C@H](Cc3ccccc3)[C@H](O)[C@@H](O)[C@H]2Cc2ccccc2)c1,410
18,COc1cc(OC)cc(N2C(=O)N(Cc3cccc(C(=O)Nc4cccc(C)n4)c3)[C@H](Cc3ccccc3)[C@H](O)[C@@H](O)[C@H]2Cc2ccccc2)c1,700
19,N#CCNC(=O)c1cccc(CN2C(=O)N(C(=O)CNC(=O)c3ccccc3)[C@H](Cc3ccccc3)[C@H](O)[C@@H](O)[C@H]2Cc2ccccc2)c1,24
